Assays:
[1] = target: endothelin receptors (human placenta membranes); assay: Inhibition of endothelin binding to human placenta membranes (125I-endothelin); settings: 125I-endothelin 20 pM, 20° C. for 2 hours or 4° C. for 24 hours, read-out: IC50 (concentration required to inhibit 50% of the specific binding of 125I-endothelin)
Method: I. Inhibition of endothelin binding to human placenta membranes (see. Life Sci 44:1429 (1989))
Human placenta is homogenized in 5 mM Tris buffer, pH 7.4, which contains 1 mM MgCl2 and 250 mM sucrose. The homogenizate is centrifuged at 4° C. and 3000 g for 15 minutes, the supernatant containing the plasma membrane fraction is centrifuged with 72000 g for 30 minutes and the precipitate is washed with 75 mM Tris buffer, pH 7.4, which contains 25 mM MgCl2. Thereafter, precipitate obtained from in each case 10 g of original tissue is suspended in 1 ml of 75 mM Tris buffer, pH 7.4, containing 25 mM MgCl2 and 250 mM sucrose, and freeze-dried at --20° C. in 1 ml aliquots.
For the binding assay, the freeze-dried membrane preparations are thawed and, after centrifugation at 20° C. and 25000 g for 10 minutes, re-suspended in assay buffer (50 mM Tris buffer, pH 7.4, containing 25 mM MnCl2, 1 mM EDTA and 0.5% of bovine serum albumin). 100 μl of this membrane suspension containing 70 μg of protein are incubated with 50 μl of ^125 I-endothelin (specific activity 2200 Ci/mMol) in assay buffer (25000 cpm, final concentration 20 pM) and 100 μl of assay buffer containing varying concentrations of test compound. The incubation is carried out at 20° C. for 2 hours or at 4° C. for 24 hours. The separation of free and membrane-bound radioligands is carried out by filtration over a glass fiber filter.
The inhibitory activity of compounds of formula I determined in test procedure I is given in Table 1 as the IC50, that as the concentration […] which is required to inhibit 50% of the specific binding of ^1251 -endothelin.

isolated rat aorta rings = assay: Endothelin-induced contractions in isolated rat aorta rings; parameters: species or system rat (Wistar-Kyoto); settings: in the absence of test compounds; endothelium removed; 37° C.; read-out: EC50 of endothelin (concentration required for a half-maximum contraction)
Method: II. Inhibition of endothelin-induced contractions in isolated rat aorta rings
Rings with a length of 5 mm were cut out from the thorax aorta of adult Wistar-Kyoto rats. The endothelium was removed by lightly rubbing the internal surface. Each ring was immersed at 37° C. in 10 ml of Krebs-Henseleit solution in an isolated bath while gassing with 95% O2 and 5% CO2. The isometric stretching of the rings was measured. The rings were stretched to a pre-tension of 3 g. After incubation for 10 minutes with the test compound or vehicle cumulative dosages of endothelin-1 were added. The activity of the test compound was determined by calculating the dosage ratios, i.e. the shift to the right (shift to higher values) of the EC50 of endothelin induced by 100 μM of test compound, with EC50 denoting the endothelin concentration required for a half-maximum contraction. […] The EC50 of endothelin in the absence of test compounds is 0.3 nM.

Compound | IC50 [1] [nM] | EC50 (isolated rat aorta rings) [nM]
COc1ccc(Cl)c(Oc2c(COCC(O)CO)nc(N3CCOCC3)nc2NS(=O)(=O)c2ccc(C(C)(C)C)cc2)c1 (racemic) [Example 13, (R,S)-4-tert-butyl-N-[5-(2-chloro-5-methoxy-phenoxy)-6-(2,3-dihydroxy-propoxymethyl)-2-(morpholin-4-yl)-pyrimidin-4yl]-benzenesulphonamide] | 182 | 
COc1ccc(Cl)c(Oc2c(CO)nc(N3CCOCC3)nc2NS(=O)(=O)c2ccc(C(C)(C)C)cc2)c1 [Example 3, 4-tert-butyl-N-[5-(2-chloro-5-methoxy-phenoxy)-6-hydroxymethyl-2-(morpholin-4-yl)-pyrimidin-4-yl]-benzenesulphonamide] | 130 | 
COc1ccc(Cl)c(Oc2c(COCCO)nc(N3CCOCC3)nc2NS(=O)(=O)c2ccc(C(C)(C)C)cc2)c1 [Example 5, 4-tert-butyl-N-[5-(2-chloro-5methoxy-phenoxy)-6-(2-hydroxy-ethoxymethyl)-2-(morpholin-4-yl)-pyrimidin-4-yl]-benzenesulphonamide] | 35 | 
COc1ccc(Cl)c(Oc2c(COCCO)ncnc2NS(=O)(=O)c2ccc(C(C)(C)C)cc2)c1 [Example 10, 4-tert-Butyl-N-[5-(2-chloro-5-methoxy-phenoxy)-6-(2-hydroxy-ethoxy-methyl)-pyrimidin-4-yl]-benzenesulphonamide] | 184 | 
endothelin: endothelin-1, agonist added in cumulative dosages to contract rat aorta rings |  | 0.3
